Consider five compounds from US20070232492A1, “Herbicidal Composition” (Ishihara Sangyo Kaisha, LTD., priority 2004, published 2007).

Like-named read-outs stand apart in the source and are kept apart here.

Assay type in all cases: in vivo
Data set [1] relates to rice (Oryza sativa var. Nihonbare). The data set is described as follows: Growth inhibition (phytotoxicity) of transplanted rice by compound A2 with or without compound D, application under submerged condition, visual rating 7 and 21 days after application. The conditions noted are these: Compound A2 60 g/ha + Compound D 600 g/ha, applied 5 days after implantation; for Growth inhibition rate (%) (average) 7 days: 7 days after application; for Growth inhibition rate (%) (average) 21 days: 21 days after application. The source says:
(§1) Growth inhibition rate (%)=0% (equivalent to the non-treated area) to 100% (complete kill)
Paddy field soil was put into a 1/500,000 hectare pot, harrowed and irrigated with a depth of 3 cm. On the next day, rice (Oryza sativa var. Nihonbare) at 2 leaf stage was implanted with a depth of 3 cm. A wettable powder of compound A2 and a wettable powder of compound D were, respectively, diluted with water and applied under submerged condition 5 days after implantation so that the active ingredients became the prescribed amounts, respectively. The state of growth of rice was visually observed 7 days and 21 days after application, and the growth inhibition rate (%) was evaluated in the same is manner as in the above Test Example 1.

Data set [2] relates to barnyardgrass (Echinochloa oryzicola vasing). The data set is described as follows: Growth inhibition of barnyardgrass in paddy soil pots, foliar application with a small sprayer, visual rating and Colby expected value. As to conditions: Echinochloa oryzicola, 504 h, 3.0 to 3.3 leaf stage, 21 days after application, read-out: Growth inhibition rate (%) Observed.
Text: (§2) When the herbicidal activity in a case where two active ingredients are combined, is larger than the simple sum of the respective herbicidal activities of the two active ingredients (the expected activity), it is called a synergistic effect. The activity expected by the combination of two active ingredients can be calculated as follows (Colby S. R., “Weed”, vol. 15, p. 20-22, 1967). E=p+q−(p×q÷100) where p: growth inhibition rate when treated with x (g/a) of herbicide X,
(§3) q: growth inhibition rate when treated with y (g/a) of herbicide Y,
(§4) E: growth inhibition rate expected when treated with x (g/a) of herbicide X and y (g/a) of herbicide Y.
(§5) Namely, when the actual growth inhibition rate (observed value) is larger than the growth inhibition rate by the above calculation (expected value), the activity by the combination can be regarded as showing a synergistic effect.
as §1
Paddy field soil was put into a 1/10,000 are pot, and seeds of barnyardgrass (Echinochloa oryzicola vasing) were sown and left to stand under an irrigated condition with a water depth of 3.5 cm. When barnyardgrass reached 3.0 to 3.3 leaf stage, a wettable powder of compound A2 and a water-based suspension of compound (B11.1) were, respectively, diluted with water in an amount of 1,000 liter/ha, followed by foliar application with a small sprayer. The state of growth was visually observed 21 days after application, and evaluation and calculation were carried out in the same manner as in the above Test Example 1.

For data set [3] the test system is unchanged. The experiment in a line: Growth inhibition of barnyardgrass in paddy soil pots, application under submerged condition, visual rating (observed value) and Colby expected value. As to conditions: Echinochloa oryzicola, soil, read-out: Growth inhibition rate (%) Observed. Put shortly: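 Barnyardgrass (Echinochloa oryzicola vasing) seeds were sown in paddy field soil in 1/10,000 are pots and kept irrigated at a water depth of 3.5 cm. Wettable powders of the active ingredients were diluted with water and applied under submerged conditions at the prescribed amounts. Growth was visually scored from 0% (as untreated) to 100% (complete kill), and expected values were calculated with Colby's formula.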

Data set [4] concerns flatsedge (Cyperus serotinus). The data set is described as follows: Growth inhibition of flatsedge (planted tubers) in paddy soil pots, application under submerged condition, visual rating and Colby expected value. As to conditions: Cyperus serotinus, soil, 720 h, 2.5 to 3.0 leaf stage, 30 days after application, Test Examples 46-60, read-out: Growth inhibition rate (%) Observed.
Text: as §2, §3, §4, §5, §1
Paddy field soil was put into a 1/10,000 are pot, and tubers of flatsedge (Cyperus serotinus) were planted and left to stand under an irrigated condition with a water depth of 3.5 cm. When flatsedge reached 2.8 to 3.2 leaf stage, wettable powders of compound A2 and compound (B1.2) were, respectively, diluted with water and applied under submerged condition so that the active ingredients became the prescribed amounts, respectively. The state of growth was visually observed 29 days after application, and evaluation and calculation were carried out in the same manner as in the above Test Example 1.
Paddy field soil was put into a 1/3,000 are pot, and tubers of flatsedge (Cyperus serotinus) were planted and left to stand under an irrigated condition with a water depth of 3.5 cm. When flatsedge reached 4 leaf stage, a wettable powder of compound A2 and an emulsifiable concentrate of compound C4 were, respectively, diluted with water and applied under submerged condition so that the active ingredients became the prescribed amounts, respectively. The state of growth was visually observed 21 days after application, and the growth inhibition rate (%) evaluated in the same manner as in the above Test Example 1 (observed value) and the growth inhibition rate (%) calculated by the above-mentioned Colby method (expected value) are shown in Table 32.
Paddy field soil was put into a 1/10,000 are pot, and tubers of flatsedge (Cyperus serotinus) were planted and left to stand under an irrigated condition with a water depth of 3.5 cm. When flatsedge reached 2.5 to 3.0 leaf stage, wettable powders of compound A2, compound (D2.3) and compound (B4.1) were, respectively, diluted with water and applied under submerged condition so that the active ingredients became the prescribed amounts, respectively. The state of growth was visually observed 30 days after application, and evaluated in the same manner as in the above Test Example 1.
Paddy field soil was put into a 1/10,000 are pot, and tubers of flatsedge (Cyperus serotinus) were planted and left to stand under an irrigated condition with a water depth of 3.5 cm. When flatsedge reached 2.5 to 3.0 leaf stage, wettable powders of compound A2, compound (D2.3) and compound (B6.1) were, respectively, diluted with water and applied under submerged condition so that the active ingredients became the prescribed amounts, respectively. The state of growth was visually observed 30 days after application, and evaluated in the same manner as in the above Test Example 1.
Paddy field soil was put into a 1/10,000 are pot, and tubers of flatsedge (Cyperus serotinus) were planted and left to stand under an irrigated condition with a water depth of 3.5 cm. When flatsedge reached 2.5 to 3.0 leaf stage, wettable powders of compound A2, compound (D2.3) and compound (B8.1) were, respectively, diluted with water and applied under submerged condition so that the active ingredients became the prescribed amounts, respectively. […]

The test system of data set [5] is Japanese bulrush (Scirpus juncoides). The experiment in a line: Growth inhibition of Japanese bulrush in paddy soil pots, application under submerged condition, visual rating and Colby expected value. As to conditions: Schoenoplectiella juncoides, soil, 456 h, 3 leaf stage, 19 days after application, Test Example 37, read-out: Growth inhibition rate (%) Observed.
Text: as §2, §3, §4, §5, §1
(§6) Paddy field soil was put into a 1/10,000 are pot, and seeds of Japanese bulrush (Scirpus juncoides) were sown and left to stand under an irrigated condition with a water depth of 3.5 cm. When Japanese bulrush reached 2.3 to 2.6 leaf stage, a wettable powder of compound A2 and granules of compound (B7.1) were, respectively, diluted with water and applied under submerged condition so that the active ingredients became the prescribed amounts, respectively. The state of growth was visually observed 10 days after application, and evaluation and calculation were carried out in the same manner as in the above Test Example 1.
as §6, with “an emulsifiable concentrate” for “granules”, “(B3.1)” for “(B7.1)”
Paddy field soil was put into a 1/10,000 are pot, and seeds of Japanese bulrush (Scirpus juncoides) were sown and left to stand under an irrigated condition with a water depth of 3.5 cm. When Japanese bulrush reached 2 leaf stage, wettable powders of compound A2, C2 and C4 and granules of compound C6 were, respectively, diluted with water and applied under submerged condition so that the active ingredients became the prescribed amounts, respectively.
Paddy field soil was put into a 1/10,000 are pot, and seeds of Japanese bulrush (Scirpus juncoides) were sown and left to stand under an irrigated condition with a water depth of 3.5 cm. When Japanese bulrush reached 2 leaf stage, wettable powders of compound A2, C2 and C4 and granules of compound C6 were, respectively, diluted with water and applied under submerged condition so that the active ingredients became the prescribed amounts, respectively. The state of growth was visually observed 19 days after application, and the growth inhibition rate (%) evaluated in the same manner as in the above Test Example 1 (observed value) and the growth inhibition rate (%) calculated by the above-mentioned Colby method (expected value) are shown in Tables 36, 37 and 38.
Paddy field soil was put into a 1/10,000 are pot, and seeds of Japanese bulrush (Scirpus juncoides) were sown and left to stand under an irrigated condition with a water depth of 3.5 cm. When Japanese bulrush reached 3 leaf stage, wettable powders of compound A2 and compound (D2.2) were, respectively, diluted with water and applied under submerged condition so that the active ingredients became the prescribed amounts, respectively. […]

For the compound `CC(C)(SC(=O)N1CCCCC1)c1ccccc1` [(D2.1), S-1-methyl-1-phenylethyl piperidine-1-carbothioate], in data set [1], the “Growth inhibition rate (%) (average) 7 days” value was 5% and the “Growth inhibition rate (%) (average) 21 days” value is listed as 10%.

The inhibition is the percentage by which the read-out fell short of the control. As for `COc1cnc(OC)n2nc(NS(=O)(=O)c3c(OCC(F)F)cccc3C(F)(F)F)nc12` [Compound (B11.1), penoxsulam], the inhibition at 4.7 g/ha in data set [2] (0.047 g/a) stood at 10%. Besides, in data set [2] (0.094 g/a), the inhibition at 9.4 g/ha was found to be 47%. The inhibition at 18.8 g/ha in data set [2] (0.188 g/a) amounted to 80%.

Consider `COc1cccc(N(C)C(=S)Oc2cccc(C(C)(C)C)c2)n1` [Compound (D2.3), O-3-tert-butylphenyl 6-methoxy-2-pyridyl(methyl)thiocarbamate], for which the inhibition at 188 g/ha came to 0% in data set [3] (504 h, 1.88 g/a, 2.8 to 3.2 leaf stage, 21 days after application, Test Examples 39-43) and 3% in data set [3] (528 h, 188 g/ha, 3 leaf stage, 22 days after application, Test Example 38). The inhibition at 375 g/ha in data set [3] (504 h, 3.75 g/a, 2.8 to 3.2 leaf stage, 21 days after application, Test Examples 39-43) was 0%; in data set [3] (528 h, 375 g/ha, 3 leaf stage, 22 days after application, Test Example 38) it was 7%. Besides, in data set [4] (6 g/a), the inhibition at 600 g/ha was 20%. The “Growth inhibition rate (%) (average) 7 days” value in data set [1] was 3%. Further, in data set [1], the “Growth inhibition rate (%) (average) 21 days” value was determined as 5%.

Regarding `Cc1ccc(NC(=O)NC(C)(C)c2ccccc2)cc1` [Compound (D1.1), 1-(1-methyl-1-phenylethyl)-3-p-tolylurea], the inhibition at 563 g/ha in data set [3] (528 h, 563 g/ha, 3 leaf stage, 22 days after application, Test Example 36) came to 0%. The inhibition at 1125 g/ha in data set [3] (528 h, 1,125 g/ha, 3 leaf stage, 22 days after application, Test Example 36) amounted to 10%. Besides, the inhibition at 1500 g/ha in data set [4] (15 g/a) came out at 20%. In data set [1], the “Growth inhibition rate (%) (average) 7 days” value turned out to be 2% and the “Growth inhibition rate (%) (average) 21 days” value was found to be 10%.

On to `CCSC(=O)N1CCCCCC1` [Compound (D2.2), S-ethyl azepane-1-carbothioate], for which, in data set [5] (900 g/ha), the inhibition at 900 g/ha amounted to 60%. In addition, the inhibition at 1800 g/ha in data set [5] (1,800 g/ha) came to 60%. Besides, in data set [1], the “Growth inhibition rate (%) (average) 7 days” value came to 7% and the “Growth inhibition rate (%) (average) 21 days” value is 17%.
